Data from paper PMC12081876, “Identification of PTGR2 inhibitors as a new therapeutic strategy for diabetes and obesity” (EMBO Molecular Medicine, 2025).
Several values for one entry are separate records, joined by “and”; a condition that tells them apart may be missing. Identical values can stand only once.

Key:
[1] = tested on: HFHSD-fed obese C57BL6/J mice; test: Intraperitoneal glucose tolerance test (ipGTT); format: in vivo, mouse; set-up: Figure 2H Average (glucose, ipGTT) / ipGTT / ipGTT glucose, Average / Blood glucose during glucose tolerance test (Figure 5L), Average: unit not given here; details: for ipGTT glucose, Average: BPRPT0245 100 mg/kg/day, group average (Figure 5L); for ipGTT glucose, individual mice: individual mouse values (Figure 5L, sheet BPRPT0245), in mg/dL (unit assumed)
Protocol: (§1) Glucose tolerance was evaluated by the oral (OGTT) and intraperitoneal glucose tolerance test (ipGTT) after a 6-h fast. For the OGTT, glucose water (1 mg/g) was given by oral gavage, and tail blood glucose was measured with a glucometer (ACCU-CHEK Performa, Roche) at 0, 15, 30, 45, 60, 90, and 120 min. For the ipGTT, tail blood glucose was measured at 0, 15, 30, 45, 60, 90, and 120 min after intraperitoneal injection of glucose water (1 mg/g). For the insulin tolerance test (ITT), mice were fasted for 4 h and then injected intraperitoneally with 1 U/kg of insulin (Humulin R, Eli Lilly). Tail blood glucose was measured at 0, 15, 30, 45, 60, 90, 120, and 180 min.

[2] = tested on: HFHSD-fed obese C57BL6/J mice; test: Insulin tolerance test (ITT); format: in vivo, mouse; set-up: Figure 2I Average (glucose, ITT) / ITT / ITT glucose, Average / Blood glucose during insulin tolerance test (Figure 5M), Average: unit not given here; details: for ITT glucose, Average: BPRPT0245 100 mg/kg/day, group average (Figure 5M); for ITT glucose, individual mice: individual mouse values (Figure 5M, sheet BPRPT0245), in mg/dL (unit assumed)
Protocol: as §1

[3] = tested on: HFHSD-fed obese C57BL6/J mice; test: Body weight / diet-induced obesity in HFHSD-fed mice; format: in vivo, mouse; details: for Body weight, Avg: BPRPT0245 100 mg/kg/day (Figure 5J); for Body weight, Avg / Body weight, Average / Body weight (individual mouse): in g (unit assumed); for Body weight, Average / Body weight (individual mouse): Figure 5J; for Body weight, Average: 100 mg/kg/day; for Body weight (individual mouse): BPRPT0245 group
[4] = tested on: differentiated 3T3-L1 adipocytes; test: Insulin-stimulated glucose uptake assay by (3H)2-deoxyglucose; format: cell-based, mouse; details: differentiated 3T3-L1 adipocytes
Protocol: The cell lines, which were tested for mycoplasma contamination and authenticated, were purchased from the Bioresource Collection and Research Center, Taiwan. All cells were cultured at 37 °C, 5% CO2 in a humidified incubator. HEK293T cells were maintained in DMEM (cat. no. SH30003.02, HyClone) supplemented with 10% fetal bovine serum (FBS) (cat. no. 04-001-1A, Biological Industries) and 1% antibiotic/antimycotic solution (cat. no. SV30079.01, HyClone). 3T3-L1 preadipocytes were maintained at ~70% confluence in DMEM with 10% calf serum (cat. no. 16170078, Gibco) and 1% antibiotic/antimycotic solution. For adipocyte differentiation, confluent 3T3-L1 cells (defined as day 0) were exposed to an induction medium containing 10% FBS, 1 μM dexamethasone (cat. no. D4902, Sigma-Aldrich), and 1 μg/ml insulin (Humulin R, Eli Lilly) in DMEM with or without 0.5 mM isobutyl-methylxanthine (cat. no. sc-201188A, Santa Cruz Biotechnology) as indicated. After two days, the medium was replaced with DMEM containing 10% FBS and 1 μg/ml insulin and was replenished every two days until assay.
Differentiated 3T3-L1 cells were starved with serum-free DMEM containing 0.2% BSA (cat. no. A9647, Sigma-Aldrich). Cells were rinsed twice with KRH buffer (137 mM NaCl, 4.7 mM KCl, 1.85 mM CaCl2, 1.3 mM MgSO4, 50 mM HEPES and 0.1% BSA, pH 7.4), and treated with or without […] insulin in the presence of 20 μM cytochalasin B (cat. no. 11328, Cayman Chemical), a GLUT inhibitor for measuring non-specific glucose uptake, for 30 min. Cells were then incubated with 0.5 μCi [^3H]-2-deoxy-D-Glucose (cat. no. NET328A001MC, PerkinElmer) and 0.1 μM 2-deoxy-D-Glucose (2DG) (cat. no. 14325, Cayman Chemical) for 5 min. Uptake of 2DG was terminated by rapidly removing medium and washing with ice-cold PBS three times. Cells were lysed with 0.1% SDS, and the radioactivity was measured using a liquid scintillation counter. Insulin-mediated glucose uptake was calculated by subtracting insulin-treated glucose uptake with basal glucose uptake.

[5] = 100 mg/kg/day oral, HFHSD-fed mice, vs vehicle

Cc1[nH]c2nc(C(C)N3CCN(c4ccccc4)CC3)nn2c(=O)c1Cc1ccc(F)cc1 (stereo not shown) [BPRPT0245]
ipGTT glucose, Average ([1]; 0 minute): 153.667 | ipGTT glucose, individual mice ([1]; 0 minute): 129 and 127 and 202 and 168 and 162 and 152 and 179 and 142 and 147 and 175 and 150 and 108 and 169 | glucose tolerance (ipGTT) [1, 5]: improved glucose tolerance | ipGTT glucose, Average ([1]; 15 minute): 305 | ipGTT glucose, individual mice ([1]; 15 minute): 325 and 328 and 302 and 300 and 251 and 345 and 316 and 291 and 297 and 290 and 312 and 319 and 271 and 303 | ipGTT glucose, Average ([1]; 30 minute): 285.933 | ipGTT glucose, individual mice ([1]; 30 minute): 318 and 250 and 316 and 269 and 323 and 308 and 260 and 273 and 295 and 280 and 325 and 283 and 289 and 215 and 285 | ipGTT glucose, Average ([1]; 45 minute): 242.333 | ipGTT glucose, individual mice ([1]; 45 minute): 261 and 181 and 275 and 209 and 208 and 318 and 231 and 278 and 227 and 225 and 336 and 288 and 173 and 200 | ipGTT glucose, Average ([1]; 60 minute): 219.733 | ipGTT glucose, individual mice ([1]; 60 minute): 262 and 155 and 167 and 252 and 207 and 264 and 223 and 275 and 201 and 277 and 228 and 194 and 179 and 205 | ipGTT glucose, Average ([1]; 90 minute): 192.133 | ipGTT glucose, individual mice ([1]; 90 minute): 204 and 144 and 134 and 174 and 173 and 260 and 232 and 213 and 160 and 193 and 231 and 169 and 117 and 218 | ipGTT glucose, Average ([1]; 120 minute): 185.4 | ipGTT glucose, individual mice ([1]; 120 minute): 218 and 166 and 140 and 179 and 201 and 221 and 215 and 198 and 168 and 199 and 217 and 208 and 174 and 111 | ITT glucose, Average ([2]; 0 minutes): 210.867 | ITT glucose, individual mice ([2]; 0 minutes): 210 and 207 and 221 and 237 and 223 and 175 and 211 and 215 and 171 and 203 and 242 and 227 and 190 | insulin sensitivity (ITT) [2, 5]: improved | ITT glucose, Average ([2]; 15 minutes): 143.067 | ITT glucose, individual mice ([2]; 15 minutes): 156 and 120 and 180 and 189 and 164 and 136 and 112 and 129 and 113 and 144 and 148 and 135 and 145 | ITT glucose, Average ([2]; 30 minutes, 100 mg/kg/day): 94.067 and 94.0667 | ITT glucose, individual mice ([2]; 30 minutes): 106 and 97 and 111 and 100 and 102 and 82 and 74 and 96 and 105 and 107 and 84 and 69 and 88 | ITT glucose, Average ([2]; 45 minutes, 100 mg/kg/day): 78.667 and 78.6667 | ITT glucose, individual mice ([2]; 45 minutes): 95 and 77 and 90 and 86 and 83 and 78 and 69 and 70 and 74 and 85 and 61 and 71 | ITT glucose, Average ([2]; 60 minutes): 69.8 | ITT glucose, individual mice ([2]; 60 minutes): 65 and 78 and 72 and 69 and 82 and 52 and 61 and 71 and 75 and 90 and 68 and 59 | ITT glucose, Average ([2]; 90 minutes, 100 mg/kg/day): 59.667 and 59.6667 | ITT glucose, individual mice ([2]; 90 minutes): 57 and 51 and 69 and 75 and 72 and 54 and 65 and 46 and 45 and 59 and 84 and 67 and 53 | ITT glucose, Average ([2]; 120 minutes, 100 mg/kg/day): 71.467 and 71.4667 | ITT glucose, individual mice ([2]; 120 minutes): 61 and 65 and 87 and 74 and 76 and 66 and 70 and 69 and 114 and 57 and 56 | ITT glucose, Average ([2]; 180 minutes, 100 mg/kg/day): 90.933 and 90.9333 | ITT glucose, individual mice ([2]; 180 minutes): 83 and 84 and 113 and 70 and 94 and 69 and 85 and 73 and 98 and 104 and 130 and 99 and 76 | diet-induced obesity (body weight) [3, 5]: significantly prevented diet-induced obesity | Body weight, Avg ([3]; time point 0): 30.59 | Body weight, Avg ([3]; time point 1): 31.2 | Body weight, Avg ([3]; time point 2): 31.673 | Body weight, Avg ([3]; time point 3): 32.167 | Body weight, Avg ([3]; time point 4): 32.92 | Body weight, Avg ([3]; time point 5): 32.837 | Body weight, Avg ([3]; time point 6): 33.673 | Body weight, Avg ([3]; time point 7): 33.323 | Body weight, Avg ([3]; time point 8): 33.923 | Body weight, Avg ([3]; time point 9): 34.59 | Body weight, Avg ([3]; time point 10): 35.623 | Body weight, Avg ([3]; time point 11): 36.193 | Body weight, Avg ([3]; time point 12): 37.113 | Body weight, Avg ([3]; time point 13): 36.957 | Body weight, Avg ([3]; time point 14): 38.33 | Body weight, Avg ([3]; time point 15): 38.607 | Body weight, Avg ([3]; time point 16): 39.303 | Body weight, Avg ([3]; time point 17): 40.533 | Body weight, Avg ([3]; time point 18): 40.933 | Body weight, Avg ([3]; time point 19): 42.11 | Body weight, Avg ([3]; time point 20): 41.483 | Body weight, Avg ([3]; time point 21): 42.933 | Body weight, Avg ([3]; time point 22): 43.33 | Body weight, Avg ([3]; time point 23): 44.06 | Body weight, Avg ([3]; time point 24): 44.36 | Body weight, Avg ([3]; time point 25): 45.28 | Body weight, Average ([3]; week 0): 30.59 | Body weight (individual mouse) ([3]; week 0): 30 and 33.8 and 29.8 and 28.35 | Body weight, Average ([3]; week 1): 31.2 | Body weight (individual mouse) ([3]; week 1): 30.45 and 34.45 and 30.15 and 29.55 | Body weight, Average ([3]; week 2): 31.6733 | Body weight (individual mouse) ([3]; week 2): 31.05 and 34.25 and 30.6 and 30.25 | Body weight, Average ([3]; week 3): 32.1667 | Body weight (individual mouse) ([3]; week 3): 31.8 and 34.4 and 30.9 and 31.9 | Body weight, Average ([3]; week 4): 32.92 | Body weight (individual mouse) ([3]; week 4): 32.8 and 36.5 and 31.8 and 33.15 | Body weight, Average ([3]; week 5): 32.8367 | Body weight (individual mouse) ([3]; week 5): 34.2 and 36 and 31.6 | Body weight, Average ([3]; week 6): 33.6733 | Body weight (individual mouse) ([3]; week 6): 34.5 and 37.15 and 31.9 | Body weight, Average ([3]; week 7): 33.3233 | Body weight (individual mouse) ([3]; week 7): 31.45 and 36.9 and 31.75 | Body weight, Average ([3]; week 8): 33.9233 | Body weight (individual mouse) ([3]; week 8): 34.8 and 36.35 and 31.55 | Body weight, Average ([3]; week 9): 34.59 | Body weight (individual mouse) ([3]; week 9): 35.75 and 38 and 32.05 and 35.25 | Body weight, Average ([3]; week 10): 35.6233 | Body weight (individual mouse) ([3]; week 10): 38.1 and 37.65 and 32.65 and 35.65 | Body weight, Average ([3]; week 11): 36.1933 | Body weight (individual mouse) ([3]; week 11): 39.55 and 38.45 and 32.7 and 35.65 | Body weight, Average ([3]; week 12): 37.1133 | Body weight (individual mouse) ([3]; week 12): 40.35 and 39.35 and 33.6 and 37.1 | Body weight, Average ([3]; week 13): 36.9567 | Body weight (individual mouse) ([3]; week 13): 40.15 and 39.25 and 33.15 and 37.05 | Body weight, Average ([3]; week 14): 38.33 | Body weight (individual mouse) ([3]; week 14): 42.7 and 39.9 and 33.45 and 38.65 | Body weight, Average ([3]; week 15): 38.6067 | Body weight (individual mouse) ([3]; week 15): 43.6 and 39.65 and 33.2 and 38.2 | Body weight, Average ([3]; week 16): 39.3033 | Body weight (individual mouse) ([3]; week 16): 45.5 and 40.05 and 32.8 and 39.05 | Body weight, Average ([3]; week 17): 40.5333 | Body weight (individual mouse) ([3]; week 17): 47.45 and 41.6 and 33.85 and 39.8 | Body weight, Average ([3]; week 18): 40.9333 | Body weight (individual mouse) ([3]; week 18): 47.8 and 41.55 and 34.1 and 40.8 | Body weight, Average ([3]; week 19): 42.11 | Body weight (individual mouse) ([3]; week 19): 50.9 and 42.65 and 34.9 and 42.2 | Body weight, Average ([3]; week 20): 41.4833 | Body weight (individual mouse) ([3]; week 20): 50.45 and 41.95 and 34.25 and 41.75 | Body weight, Average ([3]; week 21): 42.9333 | Body weight (individual mouse) ([3]; week 21): 52.5 and 42.9 and 35.35 and 43.3 | Body weight, Average ([3]; week 22): 43.33 | Body weight (individual mouse) ([3]; week 22): 53.9 and 43.35 and 35.75 and 44.95 | Body weight, Average ([3]; week 23): 44.06 | Body weight (individual mouse) ([3]; week 23): 55.05 and 46.1 and 36.75 and 45.25 | Body weight, Average ([3]; week 24): 44.36 | Body weight (individual mouse) ([3]; week 24): 50.35 and 46.35 and 37 and 46.4 | Body weight, Average ([3]; week 25): 45.28 | Body weight (individual mouse) ([3]; week 25): 54.2 and 47.6 and 36.05 and 48.2 | insulin-stimulated glucose uptake [4]: augmented insulin-stimulated glucose uptake of differentiated 3T3-L1 adipocytes
